Data: US11420969B2 (Exonate Limited, priority 2017, dated 2022)
pIC50: −log10 of the molar value. Where two headings read alike, the source gives them in different places.

Columns and labels:
[1] = target: T1, CYP2C19 (Homo sapiens, UniProt P33261); test: CYP inhibition assay, human liver microsomes, substrate S-mephenytoin; format: in vitro ADME; conditions: for IC50: human liver microsomes, 10 min incubation, LC-MS/MS, read-out: CYP Inhibition Activity (IC50/nM) CYP2C19
T1 construct: from tissue; host or cells: human liver microsomes
Procedure: (§1) 2 μL of test compound/Positive Inhibitor working solutions is then added to the reaction plate (2 μL/well). For control, 2 μL of Acetonitrile (ACN) containing DMSO (without inhibitor) is added to the reaction plate. 20 μL of substrate pool is added to all the wells of the reaction plate. The samples are mixed in a vortexer and pre-incubated at 37° C. for 20 min. The NADPH solution is pre-warmed at 37° C. for 5 min. 20 μL of pre-warmed NADPH solution is added to the reaction plate and then incubated at 37° C. for 10 min. The reaction is terminated by adding cold ACN (200 μL/well) to the reaction mixture and centrifuging at 4,000 rpm for 20 minutes. After centrifugation, supernatant is separated and analyzed by LC-MS/MS.
(§2) % inhibition and IC50 are calculated using Graphpad Prism software.

[2] = target: T2, CYP3A4 (Homo sapiens, UniProt P08684); test: CYP inhibition assay, human liver microsomes, substrate midazolam; format: in vitro ADME; conditions: for IC50: human liver microsomes, 10 min incubation, LC-MS/MS, read-out: CYP Inhibition Activity (IC50/nM) CYP3A4
T2 construct: from tissue; host or cells: human liver microsomes
Procedure: as §1, §2

[3] = target: T3, CYP1A2 (Homo sapiens, UniProt P05177); test: CYP inhibition assay, human liver microsomes, substrate tacrine; format: in vitro ADME; conditions: for IC50: human liver microsomes, 10 min incubation, LC-MS/MS, read-out: CYP Inhibition Activity (IC50/nM) CYP1A2
T3 construct: from tissue; host or cells: human liver microsomes
T3 sequence (P05177 1-516): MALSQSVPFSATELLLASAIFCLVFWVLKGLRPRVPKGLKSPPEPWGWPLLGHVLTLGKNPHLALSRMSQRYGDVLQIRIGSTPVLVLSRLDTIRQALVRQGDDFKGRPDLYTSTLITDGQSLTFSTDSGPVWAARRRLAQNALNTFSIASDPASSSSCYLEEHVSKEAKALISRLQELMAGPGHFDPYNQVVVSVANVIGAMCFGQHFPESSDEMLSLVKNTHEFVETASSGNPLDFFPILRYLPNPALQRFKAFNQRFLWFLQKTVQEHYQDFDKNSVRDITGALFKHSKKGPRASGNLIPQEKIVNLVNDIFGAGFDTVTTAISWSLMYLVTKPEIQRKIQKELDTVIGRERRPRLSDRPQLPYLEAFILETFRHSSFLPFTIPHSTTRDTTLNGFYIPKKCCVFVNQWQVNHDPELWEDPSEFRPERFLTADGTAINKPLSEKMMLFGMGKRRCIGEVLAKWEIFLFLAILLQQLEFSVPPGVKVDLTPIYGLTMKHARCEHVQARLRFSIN
Procedure: as §1, §2

[4] = target: T4, CYP2C9 (Homo sapiens, UniProt P11712); test: CYP inhibition assay, human liver microsomes, substrate diclofenac; format: in vitro ADME; conditions: for IC50: human liver microsomes, 10 min incubation, LC-MS/MS, read-out: CYP Inhibition Activity (IC50/nM) CYP2C9
T4 construct: from tissue; host or cells: human liver microsomes
Procedure: as §1, §2

[5] = target: T5, CYP2D6 (Homo sapiens, UniProt P10635); test: biochemical; format: in vitro ADME
T5 construct: from tissue; host or cells: human liver microsomes
Procedure: 158 μL of Human Liver Microsomes working stock solution is added to a reaction plate (0.253 mg/mL, 158 μL/well). 2 μL of test compound/Positive Inhibitor working solutions is then added to the reaction plate (2 μL/well). For control, 2 μL of Acetonitrile (ACN) containing DMSO (without inhibitor) is added to the reaction plate. 20 μL of substrate pool is added to all the wells of the reaction plate. The samples are mixed in a vortexer and pre-incubated at 37° C. for 20 min. The NADPH solution is pre-warmed at 37° C. for 5 min. 20 μL of pre-warmed NADPH solution is added to the reaction plate and then incubated at 37° C. for 10 min. The reaction is terminated by adding cold ACN (200 μL/well) to the reaction mixture and centrifuging at 4,000 rpm for 20 minutes. After centrifugation, supernatant is separated and analyzed by LC-MS/MS.
as §2

[6] = target: SRPK1 (Homo sapiens, UniProt Q96SB4); test: In vitro SRPK1 assay (Kinase-Glo); format: biochemical
Chain of SRPK1 (Q96SB4 whole entry, species assumed): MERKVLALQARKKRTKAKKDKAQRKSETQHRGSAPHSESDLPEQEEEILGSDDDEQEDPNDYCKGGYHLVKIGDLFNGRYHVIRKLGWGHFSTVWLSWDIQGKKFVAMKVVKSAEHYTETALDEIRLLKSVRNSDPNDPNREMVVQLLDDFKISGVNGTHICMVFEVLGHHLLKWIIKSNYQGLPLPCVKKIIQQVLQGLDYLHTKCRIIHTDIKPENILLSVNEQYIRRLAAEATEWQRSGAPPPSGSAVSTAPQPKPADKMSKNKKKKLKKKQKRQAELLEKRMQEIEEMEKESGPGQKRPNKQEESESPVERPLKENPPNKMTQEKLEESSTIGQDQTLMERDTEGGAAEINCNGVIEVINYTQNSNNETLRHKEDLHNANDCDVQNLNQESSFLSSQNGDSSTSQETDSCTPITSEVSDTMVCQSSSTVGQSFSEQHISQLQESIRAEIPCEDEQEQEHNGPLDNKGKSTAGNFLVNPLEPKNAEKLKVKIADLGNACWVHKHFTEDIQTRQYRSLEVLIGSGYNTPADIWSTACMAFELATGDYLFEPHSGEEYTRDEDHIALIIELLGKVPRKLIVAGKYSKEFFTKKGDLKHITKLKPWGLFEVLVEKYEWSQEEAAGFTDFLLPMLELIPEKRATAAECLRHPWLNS

T4 sequence (P11712 whole entry): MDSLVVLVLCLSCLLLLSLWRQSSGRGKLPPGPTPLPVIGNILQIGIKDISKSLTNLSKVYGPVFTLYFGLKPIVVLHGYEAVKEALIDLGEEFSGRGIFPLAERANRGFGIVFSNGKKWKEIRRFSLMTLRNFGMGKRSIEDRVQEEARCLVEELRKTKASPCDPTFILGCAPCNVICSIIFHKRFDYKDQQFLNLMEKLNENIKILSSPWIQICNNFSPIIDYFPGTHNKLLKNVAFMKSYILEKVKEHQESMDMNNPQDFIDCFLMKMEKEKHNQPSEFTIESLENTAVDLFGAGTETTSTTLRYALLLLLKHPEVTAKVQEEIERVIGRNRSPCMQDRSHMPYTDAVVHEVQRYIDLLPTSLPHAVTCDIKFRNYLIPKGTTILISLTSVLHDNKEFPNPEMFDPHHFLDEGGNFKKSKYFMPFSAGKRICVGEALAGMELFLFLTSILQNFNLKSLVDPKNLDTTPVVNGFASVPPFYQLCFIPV
T1 sequence (P33261 whole entry): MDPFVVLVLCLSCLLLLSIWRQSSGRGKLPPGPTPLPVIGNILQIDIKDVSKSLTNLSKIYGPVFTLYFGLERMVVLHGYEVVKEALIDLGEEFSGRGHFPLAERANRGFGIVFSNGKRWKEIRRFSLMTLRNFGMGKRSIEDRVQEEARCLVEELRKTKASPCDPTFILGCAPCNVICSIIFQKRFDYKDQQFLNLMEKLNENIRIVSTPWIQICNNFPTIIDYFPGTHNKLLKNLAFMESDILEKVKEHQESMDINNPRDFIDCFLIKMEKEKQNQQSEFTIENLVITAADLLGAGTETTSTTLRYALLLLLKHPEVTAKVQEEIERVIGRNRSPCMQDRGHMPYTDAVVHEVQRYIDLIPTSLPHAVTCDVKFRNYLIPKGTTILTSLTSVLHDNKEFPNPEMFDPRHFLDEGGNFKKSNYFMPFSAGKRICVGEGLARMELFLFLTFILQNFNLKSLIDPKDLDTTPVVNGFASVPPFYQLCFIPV
T5 sequence (P10635 whole entry): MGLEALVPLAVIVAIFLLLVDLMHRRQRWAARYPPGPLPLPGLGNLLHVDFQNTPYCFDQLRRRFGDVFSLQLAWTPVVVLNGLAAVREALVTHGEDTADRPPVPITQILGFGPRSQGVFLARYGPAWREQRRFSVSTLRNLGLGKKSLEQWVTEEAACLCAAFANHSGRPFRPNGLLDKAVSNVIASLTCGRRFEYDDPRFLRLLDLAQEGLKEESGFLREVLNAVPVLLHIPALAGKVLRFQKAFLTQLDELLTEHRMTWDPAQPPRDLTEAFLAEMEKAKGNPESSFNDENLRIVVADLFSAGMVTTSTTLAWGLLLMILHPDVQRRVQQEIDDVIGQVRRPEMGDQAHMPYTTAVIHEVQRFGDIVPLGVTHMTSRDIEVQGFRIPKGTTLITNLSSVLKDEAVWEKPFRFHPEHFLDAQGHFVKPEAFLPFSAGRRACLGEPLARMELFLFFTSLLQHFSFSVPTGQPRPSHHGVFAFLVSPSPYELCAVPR
T2 sequence (P08684 whole entry): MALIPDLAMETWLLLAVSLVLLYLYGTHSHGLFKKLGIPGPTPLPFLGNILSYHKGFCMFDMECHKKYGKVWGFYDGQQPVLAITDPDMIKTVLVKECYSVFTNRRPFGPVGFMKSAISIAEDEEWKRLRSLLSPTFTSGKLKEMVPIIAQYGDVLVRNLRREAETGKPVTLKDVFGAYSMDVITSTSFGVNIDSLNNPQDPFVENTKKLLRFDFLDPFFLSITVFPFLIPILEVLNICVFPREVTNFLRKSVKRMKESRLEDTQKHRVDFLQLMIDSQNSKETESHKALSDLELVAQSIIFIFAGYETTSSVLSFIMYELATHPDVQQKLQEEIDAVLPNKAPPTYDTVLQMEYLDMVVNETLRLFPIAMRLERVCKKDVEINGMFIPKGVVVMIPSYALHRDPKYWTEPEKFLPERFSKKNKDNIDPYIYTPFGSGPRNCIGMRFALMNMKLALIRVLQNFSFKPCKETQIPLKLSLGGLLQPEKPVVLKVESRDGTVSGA

Row | Compound | pIC50 ([1]; microsomes) | pIC50 ([2]; microsomes) | pIC50 ([3]; microsomes) | pIC50 ([4]; microsomes) | pIC50 ([5]; microsomes) | IC50 [1] | IC50 [2] | IC50 [3] | IC50 [4] | IC50 [6] | pIC50 [5] | pIC50 [4] | IC50 ([5]; human liver microsomes, 10 min incubation, LC-MS/MS, read-out: CYP Inhibition Activity (IC50/nM) CYP2D6)
1 | 5-(pyridin-4-yl)-N-(2-(5-(thiazol-2-ylmethyl)piperazin-1-yl)-5-(trifluoromethyl)phenyl)furan-2-carboxamide [Reference Example 5, reference compound] | 6.64 | 6.21 | 4.82 | 6.60 | 6.70 | – | – | – | – | – | – | – | –
2 | CC1(O)CCCN(c2ccc(C(F)(F)F)cc2NC(=O)c2ccc(-c3ccncc3)o2)CC1 (racemic) [Example 37, N-(2-(4-hydroxy-4-methylazepan-1-yl)-5-(trifluoromethyl)phenyl)-5-(pyridin-4-yl)furan-2-carboxamide] | – | – | – | – | – | 1230 nM | 960 nM | 24100 nM | 610 nM | 17 nM | 6.62 | – | –
3 | CC1(O)CCCN(c2ccc(Cl)cc2NC(=O)c2ccc(-c3ccncc3)o2)CC1 (racemic) [Example 38, N-(5-chloro-2-(4-hydroxy-4-methylazepan-1-yl)phenyl)-5-(pyridin-4-yl)furan-2-carboxamide] | – | – | – | – | – | 7500 nM | 10000 nM | 21700 nM | 7670 nM | 4 nM | 4.81 | – | –
4 | CC1(O)CCCN(c2ccc(C3CC3)cc2NC(=O)c2ccc(-c3ccncc3)o2)CC1 (racemic) [Example 39, N-(5-cyclopropyl-2-(4-hydroxy-4-methylazepan-1-yl)phenyl)-5-(pyridin-4-yl)-furan-2-carboxamide] | – | – | – | – | – | – | 18300 nM | 17600 nM | 11500 nM | 35 nM | < 4.52 | – | –
5 | CC1(O)CCCN(c2ccc(C(F)(F)F)cc2NC(=O)c2ccc(C3CCOCC3)o2)CC1 (racemic) [Example 40, N-(2-(4-hydroxy-4-methylazepan-1-yl)-5-(trifluoromethyl)phenyl)-5-(tetrahydro-2H-pyran-4-yl)furan-2-carboxamide] | – | – | – | – | – | 10400 nM | 10900 nM | > 30000 nM | 8450 nM | 1.6 nM | 4.57 | – | –
6 | CC1(O)CCCN(c2ccc(Cl)cc2NC(=O)c2ccc(C3CCOCC3)o2)CC1 (racemic) [Example 41, N-(5-chloro-2-(4-hydroxy-4-methylazepan-1-yl)phenyl)-5-(tetrahydro-2H-pyran-4-yl)furan-2-carboxamide] | – | – | – | – | – | 370 nM | 2610 nM | 2660 nM | 810 nM | 3 nM | 6.42 | – | –
7 | CC1(O)CCCN(c2ccc(C3CC3)cc2NC(=O)c2ccc(C3CCOCC3)o2)CC1 (racemic) [Example 42, N-(5-cyclopropyl-2-(4-hydroxy-4-methylazepan-1-yl)phenyl)-5-(tetrahydro-2H-pyran-4-yl)furan-2-carboxamide] | – | – | – | – | – | 530 nM | 10300 nM | > 30000 nM | 610 nM | 13 nM | 4.78 | – | –
8 | O=C(Nc1cc(C(F)(F)F)ccc1N1CCCC(O)CC1)c1ccccn1 (racemic) [Example 43, N-(2-(4-hydroxyazepan-1-yl)-5-(trifluoromethyl)-phenyl)picolinamide] | – | – | – | – | – | – | – | – | – | 3.4 nM | – | – | –
9 | O=C(Nc1cc(C(F)(F)F)ccc1N1CCCC(O)CC1)c1ccc(-c2ccncc2)o1 (racemic) [Example 44, N-(2-(4-hydroxyazepan-1-yl)-5-(trifluoromethyl)-phenyl)-5-(pyridin-4-yl)furan-2-carboxamide] | – | – | – | – | – | 8570 nM | 26300 nM | 24300 nM | 11200 nM | 1.5 nM | 4.60 | – | –
10 | O=C(Nc1cc(Cl)ccc1N1CCCC(O)CC1)c1ccc(-c2ccncc2)o1 (racemic) [Example 45, N-(5-chloro-2-(4-hydroxyazepan-1-yl)phenyl)-5-(pyridin-4-yl)furan-2-carboxamide] | – | – | – | – | – | 100 nM | 1430 nM | 550 nM | 410 nM | 30 nM | 6.18 | – | –
11 | O=C(Nc1cc(C2CC2)ccc1N1CCCC(O)CC1)c1ccc(-c2ccncc2)o1 (racemic) [Example 46, N-(5-cyclopropyl-2-(4-hydroxyazepan-1-yl)phenyl)-5-(pyridin-4-yl)furan-2-carboxamide] | – | – | – | – | – | 1180 nM | 2130 nM | 6240 nM | 1060 nM | 8.7 nM | 5.82 | – | –
12 | O=C(Nc1cc(C(F)(F)F)ccc1N1CCCC(O)CC1)c1ccc(C2CCOCC2)o1 (racemic) [Example 47, N-(2-(4-hydroxyazepan-1-yl)-5-(trifluoromethyl)-phenyl)-5-(tetrahydro-2H-pyran-4-yl)furan-2-carboxamide] | – | – | – | – | – | > 30000 nM | > 30000 nM | > 30000 nM | > 30000 nM | 10.4 nM | < 4.52 | – | –
13 | O=C(Nc1cc(C(F)(F)F)ccc1N1CCC(C(=O)O)CC1)c1ccccn1 [Example 30, 1-(2-(picolinamido)-4-(trifluoromethyl)phenyl)-piperidine-4-carboxylic acid] | – | – | – | – | – | – | – | – | – | 76 nM | – | – | –
14 | O=C(Nc1cc(C(F)(F)F)ccc1N1CCC(CO)CC1)c1ccccn1 [Example 31, N-(2-(4-(hydroxymethyl)piperidin-1-yl)-5-(trifluoromethyl)phenyl)picolinamide] | – | – | – | – | – | – | – | – | – | 41 nM | – | – | –
15 | CC1(CN)CCN(c2ccc(C(F)(F)F)cc2NC(=O)c2ccc(C3CCOCC3)o2)CC1 [Example 81, N-(2-(4-(aminomethyl)-4-methylpiperidin-1-yl)-5-(trifluoromethyl)phenyl)-5-(tetrahydro-2H-pyran-4-yl)furan-2-carboxamide] | – | – | – | – | – | – | 21200 nM | > 30000 nM | 23000 nM | 2.6 nM | 5.30 | – | –
16 | O=C(Nc1cc(C(F)(F)F)ccc1N1CCN(Cc2ccccn2)CC1)c1ccc(-c2ccncc2)o1 [Reference Example 1, reference compound] | – | – | – | – | – | 230 nM | 310 nM | > 30000 nM | – | – | – | 6.77 | 740 nM
17 | O=C(Nc1cc(C(F)(F)F)ccc1N1CCN(Cc2ccco2)CC1)c1ccc(-c2ccncc2)o1 [Reference Example 2, N-(2-(4-(furan-2-ylmethyl)piperazin-1-yl)-5-(trifluoromethyl)phenyl)-5-(pyridin-4-yl)furan-2-carboxamide, reference compound] | – | – | – | – | – | 690 nM | 1180 nM | 21800 nM | 610 nM | – | 6.59 | – | –
18 | O=C(Nc1cc(C(F)(F)F)ccc1N1CCN(Cc2cc[nH]n2)CC1)c1ccc(C2CCOCC2)o1 [Reference Example 3, N-(2-(4-((1H-pyrazol-3-yl)methyl)piperazin-1-yl)-5-(trifluoromethyl)-phenyl)-5-(tetrahydro-2H-pyran-4-yl)furan-2-carboxamide, reference compound] | – | – | – | – | – | 610 nM | 4160 nM | > 30000 nM | 230 nM | – | 5.15 | – | –
19 | O=C(Nc1cc(C(F)(F)F)ccc1N1CCN(Cc2cocn2)CC1)c1ccc(-c2ccncc2)o1 [Reference Example 4, N-(2-(4-(oxazol-4-ylmethyl)piperazin-1-yl)-5-(trifluoromethyl)phenyl)-5-(pyridin-4-yl)furan-2-carboxamide, reference compound] | – | – | – | – | – | 290 nM | 830 nM | > 30000 nM | 170 nM | – | 6.26 | – | –
